Experimental data published in paper PMC2872082 (Journal of the American Chemical Society, 2010).

Biological target: T1, MshA (CgMshA) (Corynebacterium glutamicum, UniProt Q8NTA6)
T1 sequence (Q8NTA6 1-418): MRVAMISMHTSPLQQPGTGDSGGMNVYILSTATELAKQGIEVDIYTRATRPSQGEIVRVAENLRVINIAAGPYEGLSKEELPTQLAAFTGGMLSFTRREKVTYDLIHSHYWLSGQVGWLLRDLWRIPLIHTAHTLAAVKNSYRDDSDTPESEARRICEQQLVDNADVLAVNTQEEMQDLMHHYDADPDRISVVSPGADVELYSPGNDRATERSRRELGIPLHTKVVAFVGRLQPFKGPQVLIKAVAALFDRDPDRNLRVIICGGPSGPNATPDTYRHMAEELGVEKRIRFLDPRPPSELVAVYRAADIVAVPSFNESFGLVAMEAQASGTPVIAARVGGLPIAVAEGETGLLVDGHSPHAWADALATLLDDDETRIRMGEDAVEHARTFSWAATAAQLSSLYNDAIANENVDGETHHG
Test: steady-state enzyme inhibition kinetics and slow-binding progress curves
Type: biochemical

Ki: 1400 ± 200 nM
Compound: CC(=O)N[C@H]1[C@@H](OP(=O)(O)OP(=O)(O)OC[C@H]2O[C@@H](n3ccc(=O)[nH]c3=O)[C@H](O)[C@@H]2O)O[C@](F)(CO)[C@@H](O)[C@@H]1O [UDP-(5F)-GlcNAc]
